Like-named read-outs stand apart in the source and are kept apart here.
Tests used:
Format in all cases: cell-based
[1] = system: SARS-CoV-2; conditions: Compound A 50 nM, Compound B 50 nM; higher is better
[2] = system: SARS-CoV-2; experiment: microbe, parasite or virus in culture; conditions: Severe acute respiratory syndrome coronavirus 2; secondary screen, doses 2.5, 25, 250 and 500 nM, immunofluorescent assay; read-out: IC50 anti SARS-CoV-2 activity
[3] = system: SARS-CoV-2; experiment: mTORC1 inhibition of SARS-CoV-2 replication in Vero cells (fluorescence microscopy); conditions: 25 nM, 72 hours
[4] = system: SARS-CoV-2; conditions: 10 um, 1 hour pretreatment, MOI 1, 48 hpi
[5] = system: SARS-CoV-2; experiment: microbe, parasite or virus in culture
[6] = system: human lung stem cell derived Air-liquid interface (ALI) cells; experiment: Cell Titer glo viability assay in air-liquid interface (ALI) cultures; conditions: up to 50 μM, 48 hours post treatment
Procedure: Series 1 and 2 are the values from independent wells.
Berzosertib was tested in a primary human lung tissue culture system consisting of mucociliary air-liquid interface (ALI) cultures derived from primary human proximal airway basal stem cells (ABSCs). 24-well 6.5 mm trans-wells with […] polyester membrane inserts were used for culturing ALI cells. 500 μl ALI media (PneumaCult-ALI Medium, […] Technologies) was used in the basal chamber for ALI cultures and cells were cultured at 37° C. with 5% CO2. […] Control cells were treated with the solvent DMSO. 48 hours post drug treatment, the cells were subjected to viability assay using Cell Titer glo kit.

OCc1cc(C(O)CNCCCCCCOCCCCc2ccccc2)ccc1O (stereo not drawn) [Empty-Salmeterol, Salmeterol]
Cell Number: Cell Nuclei Counts [1]: 8193

CNC(=O)c1cccc(-c2ccc3c(N4CCOC[C@@H]4C)nc(N4CCOC[C@@H]4C)nc3n2)c1 [Vistusertib]
IC50 [2]: 25 nM | presence of viral dsRNA [3]: almost completely abolished

Cc1cn(-c2cc(NC(=O)c3ccc(C)c(Nc4nccc(-c5cccnc5)n4)c3)cc(C(F)(F)F)c2)cn1 [Nilotinib]
IC50 [2]: 250 to 500 nM

CCN(CCO)CCCC(C)Nc1ccnc2cc(Cl)ccc12 (stereo not drawn) [hydroxychloroquine]
inhibition of SARS-CoV-2 infection (dsRNA immunostaining) [4]: efficiently inhibited SARS-CoV-2 infection | inhibition of SARS-CoV-2 infection (dsRNA immunostaining) ([4]; listed as HQ): effectively blocked SARS-CoV-2 infection

COc1ccc(CC(C)NCC(O)c2ccc(O)c(NC=O)c2)cc1 (stereo not drawn) [Empty-Formoterol, Formoterol]
Cell Number: Cell Nuclei Counts [1]: 8390

CNCc1ccc(-c2cc(-c3nc(-c4ccc(S(=O)(=O)C(C)C)cc4)cnc3N)on2)cc1 [Berzosertib]
inhibition of virus positive cells [5]: over 70% | IC50 ([5]; Severe acute respiratory syndrome coronavirus 2, read-out: IC50 inhibiting SARS-CoV-2 determined by RTQPCR): 40 nM | effect on cell viability [6]: did not have any deleterious effect on cell viability | effect on cell viability ([6]; listed as berzosertib): non-toxic and safe | IC50 [2]: 25 nM
